This note sets out measurements from patent US20240034743A9, “TRICYCLIC COMPOUNDS AS EGFR INHIBITORS” (QILU PHARMACEUTICAL CO., LTD., priority 2020, published 2024).

In data set [1] the test system is Ba/F3_Del19/T790M/C797S cells. As to the kind of experiment: Ba/F3_Del19/T790M/C797S cell proliferation inhibition assay (CellTiter-Glo). Particulars: Mus musculus, BaF3; cell proliferation, 72 h, CellTiter-Glo; read-out: Ba/F3 (Del19/T790M/C797S) IC50. The format is cell-based. Put shortly:
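Ba/F3 cells carrying EGFR Del19/T790M/C797S were seeded at 700 cells/well and exposed to serially diluted compound (0.1% DMSO final) for 72 h at 37° C. Viability was read by CellTiter-Glo luminescence to give IC50.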

For data set [2], the system named is PC9 (Del19/T790M/C797S) cells. Briefly: In vivo efficacy study, PC9 (Del19/T790M/C797S) xenograft. More on the design: species or system BALB/c-nu mice. The following applies: 21 consecutive days; for Tumor volume (mm^3): mean ± SEM; for Tolerability in mice (in words): po. Here is the method:
(III) In Vivo Efficacy Study Experiment
The anti-tumor activity and toxic and side effects of compound 53 and compound 27 administered orally for 21 consecutive days on PC9 (Del19/T790M/C797S) were evaluated.
SPF-grade and female BALB/c-nu mice, purchased from Beijing Vital River Laboratory Animal Technology Co., Ltd.
PC9 (Del19/T790M/C797S) cells, self-constructed by Qilu Pharmaceutical Co., Ltd.
PC9 (Del19/T790M/C797S) cells were cultured in RPMI 1640 medium containing 10% FBS at 37° C. in a 5% carbon dioxide incubator; and the cells in exponential growth phase were collected for inoculation.
Under sterile conditions, a cell suspension of in vitro cultured PC9 (Del19/T790M/C797S) was taken, centrifuged to adjust the cell concentration to 3×10^7 cells/mL, and inoculated in mice at the right side armpit (0.1 mL/mouse), and the day of inoculation was defined as day 0.
3.3 Tumor Grouping, Administration and Measurement
a. When the mean tumor volume was about 150 mm^3, 35 mice with moderate tumor volume were selected for enrollment and randomized into 5 groups according to tumor volume: G1: vehicle control group, G2: compound 53 (15 mg/kg), G3: compound 53 (60 mg/kg), G4: compound 27 (15 mg/kg) and G5: compound 27 (35 mg/kg), 7 mice/group.
b. The animals were grouped and then started to be administrated, and the volume for oral administration (po) was 10 mL/kg; the weighing was performed once daily with consecutively 21-day administration; the tumor diameters were measured 2 times a week.
c. Tumor volume (TV): tumor volumes were measured 2 times a week to observe tumor mass volume changes and growth rate. Tumor volume V=1/2×a×b^2, where a and b represent tumor long diameter and short diameter, respectively. The growth inhibition effect of the compounds on tumor tissues is evaluated by using a tumor growth inhibition TGI (%). TGI (%)=[1−(average tumor volume of a certain administration group—average tumor volume at the day of grouping in the administration group)/(average tumor volume of negative control group—average tumor volume on the day of grouping in the negative control group)]×100%. The data of the administration group and the negative control group were obtained on the same day.
d. The mice's living status, including appearance signs, general behavioral activities, mental status, food consumption, respiratory status, fecal and urinary traits, injection site conditions and other toxic manifestations, was closely observed during the course of the experiment.
e. After the endpoint was reached, the mice were euthanized, and animal carcasses were frozen and stored in a freezer and transferred to qualified medical waste treatment organization for disposal.

A further data set has as its system A431 cells (EGFR WT). Briefly: A431 cell proliferation inhibition assay (CellTiter-Glo). It counts as cell-based. The following applies: Homo sapiens, A-431; cell proliferation, 72 h, CellTiter-Glo; read-out: A431 EGFR WT IC50. An outline of the steps:
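Seeded cells grown 24 h, then exposed 72 h (37° C, 5% CO2) to graded compound dilutions at 0.1% DMSO final. Viability read by CellTiter-Glo luminescence after 30 min at room temperature; IC50 fitted from the dose curve.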

Another data set addresses EGFR WT (wild type EGFR) (Homo sapiens (Human), UniProt P00533). Briefly: In vitro enzymatic TR-FRET (HTRF KinEASE-TK) kinase assay, EGFR WT. The following applies: kinase activity, TR-FRET; read-out: EGFR (WT) IC50. It counts as biochemical. An outline of the steps:
(§1)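 Recombinant enzyme preincubated with compound 10 min at room temperature in kinase buffer with 5 mM MgCl2, 1 mM MnCl2, 1 mM DTT. Biotinylated TK substrate plus ATP then added for 40 min. HTRF detection (Sa-XL665, Cryptate antibody) for 1 h; IC50 from 665/615 nm ratio.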

The subject of data set [3] is Ba/F3_L858R/T790M/C797S cells. Briefly: Ba/F3_L858R/T790M/C797S cell proliferation inhibition assay (CellTiter-Glo). The format is cell-based. The following applies: Mus musculus, BaF3; cell proliferation, 72 h, CellTiter-Glo; read-out: Ba/F3 (L858R/T790M/C797S) IC50. An outline of the steps:
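Ba/F3 cells engineered to carry EGFR L858R/T790M/C797S, seeded at 700 cells/well, exposed to serially diluted compound (0.1% DMSO final) for 72 h at 37 °C, 5% CO2. Viability read by CellTiter-Glo luminescence after 30 min at room temperature; IC50 from dose-response fit.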

For the next data set, the target named is EGFR L858R/T790M/C797S (Homo sapiens (Human), UniProt P00533, C797S/L858R/T790M). As to the kind of experiment: In vitro enzymatic TR-FRET (HTRF KinEASE-TK) kinase assay, EGFR L858R/T790M/C797S. The format is biochemical. Particulars: kinase activity. An outline of the steps:
as §1

Molecules are shown by their SMILES. Marks after values point to notes of the source that are not given here.

Chain of EGFR WT (wild type EGFR) (P00533 25-1210): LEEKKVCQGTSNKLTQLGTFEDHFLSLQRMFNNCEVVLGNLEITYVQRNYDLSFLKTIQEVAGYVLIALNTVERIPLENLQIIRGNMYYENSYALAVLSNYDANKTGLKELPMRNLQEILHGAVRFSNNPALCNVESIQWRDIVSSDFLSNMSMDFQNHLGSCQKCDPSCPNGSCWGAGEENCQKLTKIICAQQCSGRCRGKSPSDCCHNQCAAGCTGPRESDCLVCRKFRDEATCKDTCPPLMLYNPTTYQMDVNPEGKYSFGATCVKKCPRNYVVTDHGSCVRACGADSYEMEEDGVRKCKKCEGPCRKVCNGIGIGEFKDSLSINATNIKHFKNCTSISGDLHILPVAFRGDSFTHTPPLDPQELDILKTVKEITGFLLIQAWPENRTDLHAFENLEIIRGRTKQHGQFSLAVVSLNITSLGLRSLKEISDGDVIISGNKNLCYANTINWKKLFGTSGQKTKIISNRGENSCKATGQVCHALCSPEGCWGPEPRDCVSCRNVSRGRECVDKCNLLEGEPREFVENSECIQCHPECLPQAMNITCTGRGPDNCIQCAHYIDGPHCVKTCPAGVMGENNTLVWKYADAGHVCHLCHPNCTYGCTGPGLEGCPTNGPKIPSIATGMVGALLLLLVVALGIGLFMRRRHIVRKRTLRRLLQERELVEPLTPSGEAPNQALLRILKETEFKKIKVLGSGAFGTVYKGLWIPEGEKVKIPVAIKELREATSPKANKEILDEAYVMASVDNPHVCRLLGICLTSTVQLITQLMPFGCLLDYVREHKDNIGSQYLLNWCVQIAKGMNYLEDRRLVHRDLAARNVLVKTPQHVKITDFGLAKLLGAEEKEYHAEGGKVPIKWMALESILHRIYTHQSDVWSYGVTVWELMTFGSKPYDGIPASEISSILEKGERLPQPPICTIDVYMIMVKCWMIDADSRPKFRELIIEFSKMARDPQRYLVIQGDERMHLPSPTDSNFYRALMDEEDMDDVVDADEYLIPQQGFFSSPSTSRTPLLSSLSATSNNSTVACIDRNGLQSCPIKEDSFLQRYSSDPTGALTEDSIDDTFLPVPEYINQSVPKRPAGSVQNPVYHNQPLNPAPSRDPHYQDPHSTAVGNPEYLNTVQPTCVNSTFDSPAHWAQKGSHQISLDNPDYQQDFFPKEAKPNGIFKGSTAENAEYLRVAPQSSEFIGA
Chain of EGFR L858R/T790M/C797S (P00533 25-1210 T790M/C797S/L858R): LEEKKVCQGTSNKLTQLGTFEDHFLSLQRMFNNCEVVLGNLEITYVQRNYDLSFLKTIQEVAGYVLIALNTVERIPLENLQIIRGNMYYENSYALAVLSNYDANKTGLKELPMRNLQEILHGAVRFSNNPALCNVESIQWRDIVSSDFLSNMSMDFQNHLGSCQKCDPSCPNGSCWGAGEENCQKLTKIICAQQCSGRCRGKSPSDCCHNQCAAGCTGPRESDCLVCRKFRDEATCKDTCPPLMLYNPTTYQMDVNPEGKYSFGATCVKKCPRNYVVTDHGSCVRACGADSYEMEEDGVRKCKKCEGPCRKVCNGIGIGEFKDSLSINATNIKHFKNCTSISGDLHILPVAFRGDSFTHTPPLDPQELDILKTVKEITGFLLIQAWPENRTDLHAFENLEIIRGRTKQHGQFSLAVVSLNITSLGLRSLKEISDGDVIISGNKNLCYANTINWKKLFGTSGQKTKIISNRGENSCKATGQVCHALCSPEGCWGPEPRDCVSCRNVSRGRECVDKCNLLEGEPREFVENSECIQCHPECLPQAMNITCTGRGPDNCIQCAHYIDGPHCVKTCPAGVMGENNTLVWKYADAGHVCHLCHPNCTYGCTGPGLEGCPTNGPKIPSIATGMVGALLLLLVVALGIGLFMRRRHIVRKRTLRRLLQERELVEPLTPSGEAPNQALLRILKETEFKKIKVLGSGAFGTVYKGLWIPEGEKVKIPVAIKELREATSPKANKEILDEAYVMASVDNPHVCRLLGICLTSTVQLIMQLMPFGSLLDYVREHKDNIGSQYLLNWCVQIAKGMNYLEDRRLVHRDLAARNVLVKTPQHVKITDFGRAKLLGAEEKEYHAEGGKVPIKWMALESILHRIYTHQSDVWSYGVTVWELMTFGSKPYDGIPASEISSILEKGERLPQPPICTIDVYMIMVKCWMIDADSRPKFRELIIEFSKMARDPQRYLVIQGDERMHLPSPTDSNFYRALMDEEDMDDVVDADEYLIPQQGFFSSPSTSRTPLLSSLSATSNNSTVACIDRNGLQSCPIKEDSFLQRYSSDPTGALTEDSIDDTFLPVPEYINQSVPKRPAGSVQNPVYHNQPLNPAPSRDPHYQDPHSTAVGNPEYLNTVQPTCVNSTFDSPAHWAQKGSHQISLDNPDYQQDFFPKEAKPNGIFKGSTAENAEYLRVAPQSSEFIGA

With `COc1cc2c(cc1Nc1ncc(Br)c(Nc3ccccc3P(C)(C)=O)n1)-c1cnn(C)c1CCN2C(C)C` [Compound 27], the IC50 was less than 10 nM in data set [1]; 100 to 1000 nM in the data set on A431 cells (EGFR WT); 1 to 10 nM on EGFR WT (wild type EGFR); less than 10 nM in data set [3]; less than 1 nM at EGFR L858R/T790M/C797S. Further, the “Body weight change (%)” value in data set [2] (15 mg/kg po) is 7.0%; in data set [2] (35 mg/kg po), −1.7%. In addition, the “TGI (%)” value was 50.6% in data set [2] (15 mg/kg po) and 88.1% in data set [2] (35 mg/kg po). Also, the “Tumor volume (mm^3)” value in data set [2] (15 mg/kg po) is 617.6 ± 110.7 mm^3; in data set [2] (35 mg/kg po, P < 0.01 vs G1), 253.0 ± 58.5** mm^3. For the same molecule, in data set [2], the “Tolerability in mice (in words)” value is listed as “well tolerated”.

Take `COc1cc2c(cc1Nc1ncc(Br)c(Nc3ccc4nccnc4c3NS(C)(=O)=O)n1)-c1cnn(C)c1CCN2C(C)C` [Compound 53]: the IC50 in data set [1] is less than 10 nM; in the data set with A431 cells (EGFR WT) it was 100 to 1000 nM; on EGFR WT (wild type EGFR) it was less than 1 nM; in data set [3], less than 10 nM; against EGFR L858R/T790M/C797S it was less than 1 nM. Besides, the figures for the “Body weight change (%)” value in data set [2] (15 mg/kg po) and in data set [2] (60 mg/kg po) were 0% and 6.8%, respectively. The “TGI (%)” value stood at 55.9% in data set [2] (15 mg/kg po) and 102.0% in data set [2] (60 mg/kg po). Further, the “Tumor volume (mm^3)” value in data set [2] (15 mg/kg po) is listed as 565.8 ± 82.0 mm^3; in data set [2] (60 mg/kg po, P < 0.01 vs G1), 117.0 ± 16.1** mm^3. Moreover, the “Tolerability in mice (in words)” value in data set [2] is recorded as “well tolerated”.
